# Read-outs that look alike come from different tables or passages of the source.
# How the values were obtained:
# [1] = system: PCP-induced hyperactivity in mice; assay: In vivo efficacy test (PCP-induced high locomotor activity in mice); settings: male ICR mice, oral administration 45 minutes before PCP 7 mg/kg i.p.; dose significantly reducing PCP-induced hyperactivity vs model group
# Experimental: 5) In Vivo Efficacy Test (PCP-Induced High Locomotor Activity in Mice)
# PCP solution was prepared in a suitable concentration for 7 mg/kg dosage with saline. […] Male ICR mice (18-22 g) were used as test animals. All the test mice were randomly divided into vehicle control group, model control group, positive control group, and treatment group(8 mice per group). Mice of each group were orally administered test compounds or vehicle. After 45 minutes PCP solution was administered (7 mg/kg) through intraperitoneal injection. The mice track after drug or saline administration was recorded and analyzed by the spontaneous, open-field video analysis system. […] The mice track was recorded and analyzed by the spontaneous, open-field video analysis system. The total distance in each group was calculate and expressed as mean+SD and statistical evaluation was performed by one way ANOVA.
# [2] = biological target: human recombinant 5-HT1A receptor (Homo sapiens (Human), UniProt P08908); assay: 5-HT1A receptor agonism activity test (inhibition of cAMP production, LANCE cAMP 384 Kit); type: cell-based; settings: HEK293 cells expressing human recombinant 5-HT1A receptor; test concentration 0.1 nM-10000 nM; read-out: 5-HT1A receptor agonism (EC50, mol/L)
# Sequence of human recombinant 5-HT1A receptor (P08908 whole entry): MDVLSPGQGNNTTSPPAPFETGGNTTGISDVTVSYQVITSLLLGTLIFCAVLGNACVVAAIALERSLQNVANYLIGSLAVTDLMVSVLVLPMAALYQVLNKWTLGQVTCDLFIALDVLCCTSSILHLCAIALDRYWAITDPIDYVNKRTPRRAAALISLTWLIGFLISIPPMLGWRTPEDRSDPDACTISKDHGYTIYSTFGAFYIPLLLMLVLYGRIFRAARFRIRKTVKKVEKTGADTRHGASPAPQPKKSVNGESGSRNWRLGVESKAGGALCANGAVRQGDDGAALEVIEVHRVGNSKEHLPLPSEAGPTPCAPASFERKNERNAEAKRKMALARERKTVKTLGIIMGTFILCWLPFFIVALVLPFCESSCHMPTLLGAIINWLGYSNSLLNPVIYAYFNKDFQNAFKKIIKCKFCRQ
# From the text: Pharmacological Test 1) 5-HT1A Receptor Agonism Activity Test
# [3] = biological target: human recombinant 5-HT2A receptor (Homo sapiens (Human), UniProt P28223); assay: 5-HT2A receptor antagonism activity test (FLIPR Calcium 5 Assay Kit); settings: read-out: 5-HT2A receptor antagonism (IC50, mol/L)
# Sequence of human recombinant 5-HT2A receptor (P28223 whole entry): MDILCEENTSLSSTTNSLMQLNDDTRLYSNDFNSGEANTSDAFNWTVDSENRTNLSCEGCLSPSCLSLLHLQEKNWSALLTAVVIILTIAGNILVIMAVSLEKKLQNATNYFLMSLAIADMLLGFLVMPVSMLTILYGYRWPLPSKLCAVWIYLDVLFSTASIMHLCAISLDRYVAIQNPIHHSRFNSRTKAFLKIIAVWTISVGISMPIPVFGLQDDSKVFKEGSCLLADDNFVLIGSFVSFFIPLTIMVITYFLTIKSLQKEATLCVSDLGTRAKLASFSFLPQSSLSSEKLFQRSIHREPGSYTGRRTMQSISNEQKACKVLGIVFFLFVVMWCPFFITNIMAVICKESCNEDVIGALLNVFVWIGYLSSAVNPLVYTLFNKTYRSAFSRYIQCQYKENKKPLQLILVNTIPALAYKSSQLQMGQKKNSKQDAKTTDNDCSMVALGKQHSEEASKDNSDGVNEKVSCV
# [4] = biological target: human recombinant D2 receptor (Homo sapiens (Human), UniProt P14416); assay: D2 receptor antagonism activity test (inhibition of dopamine-induced decrease of cAMP production, LANCE cAMP 384 Kit); settings: read-out: D2 receptor antagonism (IC50, mol/L), HEK293 cells expressing human recombinant D2 receptor, 0.1 nM-10000 nM
# Sequence of human recombinant D2 receptor (P14416 whole entry): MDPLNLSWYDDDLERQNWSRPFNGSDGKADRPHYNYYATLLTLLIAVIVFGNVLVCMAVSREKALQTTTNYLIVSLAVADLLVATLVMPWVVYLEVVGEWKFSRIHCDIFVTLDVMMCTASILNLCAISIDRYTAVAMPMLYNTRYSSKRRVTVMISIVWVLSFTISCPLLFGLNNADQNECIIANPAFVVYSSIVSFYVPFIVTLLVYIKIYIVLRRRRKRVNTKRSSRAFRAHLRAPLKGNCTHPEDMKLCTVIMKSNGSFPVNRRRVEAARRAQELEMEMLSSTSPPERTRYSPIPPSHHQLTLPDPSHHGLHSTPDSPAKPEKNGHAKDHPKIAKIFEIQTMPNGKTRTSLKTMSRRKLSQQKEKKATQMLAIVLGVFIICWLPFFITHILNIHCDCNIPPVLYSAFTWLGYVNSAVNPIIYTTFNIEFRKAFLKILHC
# [5] = CHO-K1 cells expressing human recombinant 5-HT2A receptor, α-methyl-5-hydroxytryptamine 300 nM, 0.1 nM-10000 nM
Structure (SMILES),Effective dose [1] [mg/kg],EC50 [2] [nM],"IC50 [3, 5] [nM]",IC50 [4] [nM],IC50 [3] [nM]
"O=C1Cc2cc(CCN3CCN(c4cccc5sccc45)CC3)ccc2N1 [Compound of example 8, 5-(2-(4-(benzo[b]thiophen-4-yl)piperazin-1-yl)ethyl)indolin-2-one]",0.1 to 0.3,,,,
"Cl.O=C1Cc2cc(CCN3CCN(c4cccc5sccc45)CC3)c(Cl)cc2N1 [Compound of example 15, 5-(2-(4-(benzo[b]thiophen-4-yl)piperazin-1-yl)ethyl)-6-chloroindolin-2-one hydrochloride]",0.1 to 1,,,,
"O=C1CCc2ccc(CCN3CCN(c4cccc5sccc45)CC3)cc2N1 [Compound of example 19, 7-(2-(4-(benzo[b]thiophen-4-yl)piperazin-1-yl)ethyl)-3,4-dihydroquinolin-2(1H)-one]",0.1,0.926,169,8.62,
"O=c1[nH]c2ccc(CCN3CCN(c4cccc5sccc45)CC3)cc2[nH]1 [Compound of example 27, 5-(2-(4-(benzo[b]thiophen-4-yl)piperazin-1-yl)ethyl)-1H-benzo[d]imidazol-2(3H)-one]",0.3,,,,
"Cl.O=c1[nH]c2ccc(CCN3CCN(c4cccc5sccc45)CC3)cc2s1 [Compound of example 29, 6-(2-(4-(benzo[b]thiophen-4-yl)piperazin-1-yl)ethyl)benzo[d]thiazol-2(3H)-one hydrochloride]",0.3,,,,
"Cl.O=C1COc2ccc(CCN3CCN(c4cccc5sccc45)CC3)cc2N1 [Compound of example 30, 6-(2-(4-(benzo[b]thiophen-4-yl)piperazin-1-yl)ethyl)-2H-benzo[b][1,4]oxazin-3(4H)-one hydrochloride]",0.3,,,34.2,42.1
"O=C1CSc2ccc(CCN3CCN(c4cccc5sccc45)CC3)cc2N1 [Compound of example 31, 6-(2-(4-(benzo[b]thiophen-4-yl)piperazin-1-yl)ethyl)-2H-benzo[b][1,4]thiazin-3(4H)-one]",1,0.68,52.2,92.7,
"O=c1ccc2ccc(CCCCN3CCN(c4cccc5sccc45)CC3)cc2[nH]1 [Compound of example 33, 7-(4-(4-(benzo[b]thiophen-4-yl)piperazin-1-yl)butyl)quinolin-2(1H)-one]",1,2.24,244,35.6,
"c1ccc2c(CCN3CCN(c4cccc5sccc45)CC3)c[nH]c2c1 [Compound of example 46, 3-(2-(4-(benzo[b]thiophen-4-yl)piperazin-1-yl)ethyl)-1H-indole]",1,,,,
"Cl.O=C1CCc2cc(CCN3CCN(c4cccc5sccc45)CC3)ccc2N1 [Compound of example 47, 6-(2-(4-(benzo[b]thiophen-4-yl)piperazin-1-yl)ethyl)-3,4-dihydroquinolin-2(1H)-one hydrochloride]",0.3,,,,
"Cl.O=C1CCCc2cc(CCN3CCN(c4cccc5sccc45)CC3)ccc2N1 [Compound of example 49, 7-(2-(4-(benzo[b]thiophen-4-yl)piperazin-1-yl)ethyl)-4,5-dihydro-1H-benzo[b]azepin-2(3H)-one hydrochloride]",1,,,,
"CN1Cc2cc(CCN3CCN(c4cccc5sccc45)CC3)ccc2NC1=O [Compound of example 51, 6-(2-(4-(benzo[b]thiophen-4-yl)piperazin-1-yl)ethyl)-3-methyl-3,4-dihydroquinazolin-2(1H)-one]",1,,,,
"Cl.O=c1ccc2ccc(CCN3CCN(c4cccc5sc(F)cc45)CC3)cc2[nH]1 [Compound of example 57, 7-(2-(4-(2-fluorobenzo[b]thiophen-4-yl)piperazin-1-yl)ethyl)quinolin-2(1H)-one hydrochloride]",1,,,8.4,
"c1cc(N2CCN(CCc3ccc4ncsc4c3)CC2)c2ccsc2c1 [Compound of example 59, 6-(2-(4-(benzo[b]thiophen-4-yl)piperazin-1-yl)ethyl)benzo[d]thiazole]",0.3,,,,
"Cl.O=C1CCc2ccc(CCN3CCN(c4cccc5sc(F)cc45)CC3)cc2N1 [Compound of example 64, 7-(2-(4-(2-fluorobenzo[b]thiophen-4-yl)piperazin-1-yl)ethyl)-3,4-dihydroquinolin-2(1H)-onehydrochloride]",1,31.6,257,2.94,
"O=C1CCc2cc(CCN3CCN(c4cccc5sc(F)cc45)CC3)ccc2N1 [Compound of example 65, 6-(2-(4-(2-fluorobenzo[b]thiophen-4-yl)piperazin-1-yl)ethyl)-3,4-dihydroquinolin-2(1H)-one]",3,1.25,40.3,7.76,
"O=c1[nH]c2ccc(CCN3CCN(c4cccc5sccc45)CC3)cc2o1 [Compound of example 68, 6-(2-(4-(benzo[b]thiophen-4-yl)piperazin-1-yl)ethyl)benzo[d]oxazol-2(3H)-one]",0.3,,,,4.82
"O=c1ccc2ccc(CCCCCN3CCN(c4cc(F)cc5sccc45)CC3)cc2[nH]1 [Compound of example 71, 7-(5-(4-(6-fluorobenzo[b]thiophen-4-yl)piperazin-1-yl)pentyl)quinolin-2(1H)-one]",3,,,,
"O=C1COc2c(F)cc(CCCCN3CCN(c4cccc5sccc45)CC3)cc2N1 [Compound of example 72, 6-(4-(4-(benzo[b]thiophen-4-yl)piperazin-1-yl)butyl)-8-fluoro-2H-benzo[b][1,4]oxazin-3(4H)-one]",3,2.53,951,13.2,
"Cl.Cn1c(=O)n(C)c2cc(CCN3CCN(c4cccc5sccc45)CC3)ccc21 [Compound of example 87, 5-(2-(4-(benzo[b]thiophen-4-yl)piperazin-1-yl)ethyl)-1,3-dimethyl-1H-benzo[d]imidazol-2(3H)-one hydrochloride]",1,4.5,88,,
"CC(=O)N1CC(CCN2CCN(c3cccc4sccc34)CC2)c2ccccc21.Cl (stereo not drawn) [Compound of example 124, 1-(3-(2-(4-(benzo[b]thiophen-4-yl)piperazin-1-yl)ethyl)indolin-1-yl)ethanone hydrochloride]",3,,,,
"Cc1nc2n(c(=O)c1CCN1CCN(c3cccc4sc(F)cc34)CC1)CCCC2O.Cl (stereo not drawn) [Compound of example 131, 3-(2-(4-(2-fluorobenzo[b]thiophen-4-yl)piperazin-1-yl)ethyl)-9-hydroxy-2-methyl-6,7,8,9-tetrahydro-4H-pyrido[1,2-a]pyrimidin-4-one hydrochloride]",3,26,,,51.3
"Cl.S=C1CCc2ccc(CCN3CCN(c4cccc5sccc45)CC3)cc2N1 [Compound of example 133, 7-(2-(4-(benzo[b]thiophen-4-yl)piperazin-1-yl)ethyl)-3,4-dihydroquinoline-2(1H)-thione hydrochloride]",1,,,10.9,
"O=C1CCc2ccc(OCCCCN3CCN(c4cccc(Cl)c4Cl)CC3)cc2N1 [aripiprazole, reference compound]",3,,,,
